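Five concentrations, 48 hours, 96-well plates. GI50: concentration for 50% inhibition of growth.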 Activity calls are given as the source filed them. No stated cut-off is given here; in the data, active = GI50 up to about 1.1 µM and inactive = higher.
Columns and labels:
Assay in all cases: NCI-60 cell line screen, 48 h
RPMI-8226 = test system: RPMI-8226
OVCAR-3 = test system: OVCAR-3
TK-10 = test system: TK-10
KM12 = test system: KM12
COLO 205 = test system: COLO 205
NCI-H23 = test system: NCI-H23
MCF7 = test system: MCF7
EKVX = test system: EKVX
DU-145 = test system: DU-145
IGROV-1 = test system: IGROV-1
UACC-257 = test system: UACC-257
T47D = test system: T47D
MOLT-4 = test system: MOLT-4
MDA-MB-435 = test system: MDA-MB-435
SK-MEL-5 = test system: SK-MEL-5
SR = test system: SR
UACC-62 = test system: UACC-62
SK-MEL-2 = test system: SK-MEL-2
SF-539 = test system: SF-539
CCRF-CEM = test system: CCRF-CEM

Measured: GI50

CC(Oc1ccccc1)C(=O)NN (stereo not given)
inactive: RPMI-8226 > 100 µM | OVCAR-3 > 100 µM | TK-10 > 100 µM | KM12 > 100 µM | COLO 205 > 100 µM | NCI-H23 > 100 µM | MCF7 > 100 µM | EKVX > 100 µM | DU-145 > 100 µM | IGROV-1 > 100 µM | UACC-257 > 100 µM | T47D > 100 µM | MOLT-4 > 100 µM | MDA-MB-435 > 100 µM | SK-MEL-5 > 100 µM | SR > 100 µM | UACC-62 > 100 µM | SK-MEL-2 > 100 µM | SF-539 > 100 µM | CCRF-CEM > 100 µM

CCC(C#N)(c1ccccc1)N(CCc1ccccc1)C(=O)c1ccccc1 (stereo not given)
inactive: RPMI-8226 > 100 µM | OVCAR-3 85.9 µM | TK-10 62.1 µM | KM12 > 100 µM | COLO 205 > 100 µM | NCI-H23 76.9 µM | MCF7 > 100 µM | EKVX > 100 µM | DU-145 > 100 µM | IGROV-1 46.9 µM | UACC-257 > 100 µM | T47D > 100 µM | MOLT-4 > 100 µM | MDA-MB-435 > 100 µM | SK-MEL-5 > 100 µM | SR > 100 µM | UACC-62 49.5 µM | SK-MEL-2 67 µM | SF-539 15.6 µM | CCRF-CEM > 100 µM

N=C(N)n1nc2c(c1O)CCCC2
inactive: RPMI-8226 > 100 µM | OVCAR-3 > 100 µM | TK-10 > 100 µM | KM12 > 100 µM | COLO 205 > 100 µM | NCI-H23 > 100 µM | MCF7 > 100 µM | EKVX > 100 µM | DU-145 > 100 µM | IGROV-1 65.2 µM | UACC-257 > 100 µM | T47D > 100 µM | MOLT-4 > 100 µM | MDA-MB-435 > 100 µM | SK-MEL-5 > 100 µM | SR > 100 µM | UACC-62 > 100 µM | SK-MEL-2 > 100 µM | SF-539 > 100 µM | CCRF-CEM > 100 µM
